Test results taken from patent US4704384A, “Aziridinyl quinone antitumor agents” (priority 1981, dated 1987).
Where “and” joins values, the source holds several entries; their conditions need not be identical. Equal entries are not always repeated. Entries after “also recorded” stand apart in the source; their conditions may differ. Where two headings read alike, the source gives them in different places.

Key:
[1] = tested on: lymphoid leukemia L1210; conditions: for OD / ILS / animals alive per 6 / T-C: Table VIII; for survivors, IP L1210: Table XI, parentheses, per 6
Description: ^b Ip tumor implantation, ip QD19 treatment schedule.
^e ILS = [(treated survival + control survival) × 100%] - 100%
The L1210, P388 and B16 test systems described in Table II utilize intraperitoneal (IP) tumor implantation and IP drug treatment while the Lewis lung system employs subcutaneous tumor implantation and IP treatment. All three CNS tumor models (Table III) use intracerebral (IC) tumor implantation and IP treatment.
Aqueous saline solution (0.9%) was used as the drug vehicle. Normally, five doses were employed per experiment with the top dose chosen to produce toxicity. The lower doses were 50% of each preceeding dose.
Consistent with NCI antitumor test protocols, intraperitoneal (IP) administration of the drug was employed with all five tumor systems investigated. Tumor implantation was IP in the systems designated IP leukemia L1210 and P388 as well as B16 melanoma. Intracerebral (IC) tumor implantation was utilized in the IC L1210 and ependymoblastoma tumor systems.

[2] = tested on: ependymoblastoma; assay type: in vivo, murine; conditions: for OD: QD1-5, Table X; for animals alive per 6: QD1-5, day 60, at OD; for animals alive per 6 / ILS: Table X; for survivors, EM: parentheses, per 6; for ILS: QD1-5, at OD
Description: ^c Ic tumor implantation, ip QD15 treatment schedule.
(§1) A third IC tumor model, the ependymoblastoma system, was also studied. This system requires intracerebral implantation of a solid tumor fragment while the IC L1210 and IC P388 systems utilize IC inoculated ascites tumor fluid. All three use IP drug treatment however. […] Cures (survivors from the group of six mice on the last day of the experiment) are indicated.

[3] = tested on: B16 melanocarcinoma; assay type: in vivo, murine; conditions: for OD: QD1-9, Table IX; for ILS: QD1-9, at OD, Table IX
[4] = tested on: lymphoid leukemia L1210; assay type: in vivo, murine; conditions: for OD: QD1-9, Table X; for ILS: QD1-9, at OD, Table X
Description: as §1

[5] = tested on: lymphocytic leukemia P388; assay type: in vivo, murine; conditions: for OD: QD1-9, Table IX; for ILS: QD1-9, at OD; for ILS / animals alive per 6: Table IX; for animals alive per 6: QD1-9, day 30, at OD; for survivors, P388: Table XI, parentheses, per 6

Row | SMILES | activity in IP L1210 [1] | OD ([1]; Day 1 only (1 injection)) | ILS ([1]; Day 1 only, at OD) | OD ([1]; Q4D (day 1,5,9)) | ILS ([1]; Q4D, at OD) | OD ([1]; QD1-9 (9 injections)) | ILS ([1]; QD1-9, at OD) | OD [2] | OD [3] | ILS [3] | OD [5] | ILS [5] | ILS [2] | further results
1 | CCSC1=C(N2CC2)C(=O)C(SCC)=C(N2CC2)C1=O [Compound 5] | not reproducible | – | – | – | – | – | – | – | – | – | – | – | – | % ILS ([1]; Q4D schedule): 30%
2 | CCCSC1=C(N2CC2)C(=O)C(SCCC)=C(N2CC2)C1=O [Compound 6] | inactive | – | – | – | – | – | – | – | – | – | – | – | – | –
3 | CCOC(=O)NC1=C(N2CC2C)C(=O)C(NC(=O)OCC)=C(N2CC2C)C1=O (centres unmarked) [Compound 10] | abolished activity | – | – | – | – | – | – | – | – | – | – | – | – | –
4 | CCOC(=O)NC1=C(N2CC2(C)C)C(=O)C(NC(=O)OCC)=C(N2CC2(C)C)C1=O [Compound 11] | abolished activity | – | – | – | – | – | – | – | – | – | – | – | – | –
5 | CCOC(=O)NC1=C(NCCCl)C(=O)C(NC(=O)OCC)=C(NCCCl)C1=O [Compound 12] | activity was abolished | – | – | – | – | – | – | – | – | – | – | – | – | –
6 | CC(=O)NC1=C(N2CC2(C)C)C(=O)C(NC(C)=O)=C(N2CC2(C)C)C1=O [Compound 21] | abolished activity | – | – | – | – | – | – | – | – | – | – | – | – | –
7 | CNC1=C(N2CC2C)C(=O)C(NC)=C(N2CC2C)C1=O (centres unmarked) [Compound 26] | – | 5.0 mg/kg/injection and 10.0 mg/kg/injection | 42% and 39% | 12.5 mg/kg/injection | 93% and 52% | 5.0 mg/kg/injection | 69% and 37% | 10.0 mg/kg/injection and 5.0 mg/kg/injection | 5.0 mg/kg/injection | 70% and 48% | – | – | – | activity in ependymoblastoma [2]: highly active; animals alive per 6 [2]: 1; survivors, EM ([2]; Table XI): 1; activity in B16 melanoma [3]: reproducibly active; OD [4]: 5.0 mg/kg/injection and 10.0 mg/kg/injection; ILS [4]: 39% and 25%
8 | O=C1C(F)=C(N2CC2)C(=O)C(N2CCOCC2)=C1N1CC1 [Compound 31, 2,5-DIAZIRIDINYL-3-FLUORO-5-MORPHOLINO-1,4-BENZOQUINONE] | – | – | – | 6.2 mg/kg/injection and 3.1 mg/kg/injection | – | – | – | 0.8 mg/kg/injection and 1.5 mg/kg/injection | 0.7 mg/kg/injection | 18% and 9% | 3.0 mg/kg/injection and 6.0 mg/kg/injection | 57% and 54% | 49% and 40% | activity in IP P388 [5]: active against leukemia P388
9 | CNC1=C(N2CC2)C(=O)C(NC)=C(N2CC2)C1=O [Compound 34] | – | 0.7 mg/kg/injection | – | 0.8 mg/kg/injection and 0.4 mg/kg/injection | 57% and 56% | 0.2 mg/kg/injection | 73% and 61% | 0.2 mg/kg/injection and 0.4 mg/kg/injection | – | 39% and 29% | 0.2 mg/kg/injection and 0.1 mg/kg/injection | 95% and 69% | 219% and 218% | animals alive per 6 ([1]; QD1-9, day 30, at OD): 1; activity in ependymoblastoma [2]: among the most active materials; animals alive per 6 [2]: 5 and 4; survivors, EM ([2]; Table XI): 5; activity in B16 melanoma [3]: approached minimal reproducible activity; activity in IC L1210 [4]: most active; also recorded: significant activity; OD [4]: 0.4 mg/kg/injection and 0.2 mg/kg/injection; ILS [4]: 68% and 60%
10 | CCNC1=C(N2CC2)C(=O)C(NCC)=C(N2CC2)C1=O [Compound 35, 2,5-DIAZIRIDINYL-3,6-BIS(ETHYLAMINO)-1,4-BENZOQUINONE] | activity appears to peak | 1.5 mg/kg/injection | 68% and 54% | 3.0 mg/kg/injection and 1.5 mg/kg/injection | 75% and 57% | 1.5 mg/kg/injection | 112% and 91% | 1.5 mg/kg/injection | 0.4 mg/kg/injection and 0.7 mg/kg/injection | 26% and 24% | – | 160% and 103% | 218% and 187% | T-C ([1]; QD1-9, day 5, at OD): -3.3 grams; animals alive per 6 ([1]; QD1-9, day 30, at OD): 2 and 1; survivors, IP L1210 [1]: 2; activity in ependymoblastoma [2]: most active; animals alive per 6 [2]: 2; survivors, EM ([2]; Table XI): 2; OD [4]: 3.0 mg/kg/injection; ILS [4]: 44% and 40%
11 | CCCNC1=C(N2CC2)C(=O)C(NCCC)=C(N2CC2)C1=O [Compound 36] | significant reduction in activity | – | 17% | 6.2 mg/kg/injection | 28% and 25% | 6.2 mg/kg/injection | 48% and 43% | 5.0 mg/kg/injection and 10.0 mg/kg/injection | 5.0 mg/kg/injection | 36% and 32% | 6.0 mg/kg/injection | 151% and 108% | 259% and 143% | animals alive per 6 [5]: 2; survivors, P388 [5]: 2; activity in ependymoblastoma [2]: highly active; also recorded: very active; also recorded: most active; animals alive per 6 [2]: 2 and 1; survivors, EM ([2]; Table XI): 2
12 | CCCCNC1=C(N2CC2)C(=O)C(NCCCC)=C(N2CC2)C1=O [Compound 37] | significant reduction in activity | 10.0 mg/kg/injection | 11% and 5% | 12.5 mg/kg/injection and 8.2 mg/kg/injection | 44% and 25% | 10.0 mg/kg/injection and 5.0 mg/kg/injection | 36% and 30% | 6.0 mg/kg/injection and 3.0 mg/kg/injection | 10.0 mg/kg/injection and 5.0 mg/kg/injection | – | 5.0 mg/kg/injection and 10.0 mg/kg/injection | 64% and 49% | 93% | –
13 | O=C1C(NCCO)=C(N2CC2)C(=O)C(NCCO)=C1N1CC1 [Compound 38] | Excellent activity; also recorded: produced cures; also recorded: superior | 1.5 mg/kg/injection | 175% and 119% | 0.7 mg/kg/injection | 131% and 70% | 0.7 mg/kg/injection | 205% and 134% | 1.5 mg/kg/injection | 0.4 mg/kg/injection | 61% and 51% | 0.4 mg/kg/injection | 175% and 160% | 83% and 70% | animals alive per 6 ([1]; Day 1 only, day 30, at OD): 5 and 3; animals alive per 6 ([1]; QD1-9, day 30, at OD): 2 and 3; survivors, IP L1210 [1]: 2; maximum ILS ([1]; chronic schedule): > 200%; activity in IP P388 [5]: very active producing multiple cures; animals alive per 6 [5]: 3 and 2; survivors, P388 [5]: 3; activity in B16 melanoma [3]: reproducibly active; activity in IC L1210 [4]: marginal IC L1210 activity; OD [4]: 0.75 mg/kg/injection; ILS [4]: 57% and 48%
14 | O=C1C(NCC(O)CO)=C(N2CC2)C(=O)C(NCC(O)CO)=C1N1CC1 (centres unmarked) [Compound 39] | Excellent activity; also recorded: produced cures; also recorded: probably the most active compound in the IP ascites systems | 4.0 mg/kg/injection and 2.0 mg/kg/injection | 89% | 4.0 mg/kg/injection and 8.0 mg/kg/injection | 90% and 79% | 4.0 mg/kg/injection and 2.0 mg/kg/injection | 206% | – | 4.0 mg/kg/injection and 6.0 mg/kg/injection | 50% and 42% | 4.0 mg/kg/injection | 143% | 99% and 53% | animals alive per 6 ([1]; Day 1 only, day 30, at OD): 4; survivors, IP L1210 [1]: 5; activity in IP P388 [5]: very active producing multiple cures; animals alive per 6 [5]: 6 and 4; survivors, P388 [5]: 6; activity in ependymoblastoma [2]: moderate to good EM activity; animals alive per 6 [2]: 1; ILS (%) EM ([2]; Table XI, outstanding activity): 99%; survivors, EM ([2]; Table XI): 1; survivors, EM ([2]; repeat test): 6; activity in B16 melanoma [3]: reproducibly active; activity in IC L1210 [4]: marginal IC L1210 activity; OD [4]: 4.0 mg/kg/injection; ILS [4]: 43% and 41%
15 | O=C1C(N2CCCC2)=C(N2CC2)C(=O)C(N2CCCC2)=C1N1CC1 [Compound 43, 2,5-DIAZIRIDINYL-3,6-DIPYRROLIDINO-1,4-BENZOQUINONE] | – | 4.0 mg/kg/injection and 2.0 mg/kg/injection | 8% | 6.2 mg/kg/injection | 43% | 2.0 mg/kg/injection | 24% and 21% | 1.6 mg/kg/injection and 3.1 mg/kg/injection | 2.0 mg/kg/injection | 28% and 18% | – | 72% and 55% | – | T-C ([1]; Q4D, day 5, at OD): -2.3 grams
16 | O=C1C(N2CCCCC2)=C(N2CC2)C(=O)C(N2CCCCC2)=C1N1CC1 [Compound 44] | – | – | 16% and 8% | – | 26% and 22% | 10.0 mg/kg/injection | 28% | – | 5.0 mg/kg/injection and 2.5 mg/kg/injection | – | 5.0 mg/kg/injection and 10.0 mg/kg/injection | 46% and 77% | 68% and 46% | T-C ([1]; QD1-9, day 5, at OD): -2.2 grams
17 | O=C1C(N2CCOCC2)=C(N2CC2)C(=O)C(N2CCOCC2)=C1N1CC1 [Compound 46, 2,5-DIAZIRIDINYL-3,6-DIMORPHOLINO-1,4-BENZOQUINONE] | – | – | -14% | 6.0 mg/kg/injection | 49% and 44% | – | 64% and 32% | – | – | 24% and 17% | 0.5 mg/kg/injection and 0.7 mg/kg/injection | 52% and 48% | 134% and 82% | T-C ([1]; Q4D, day 5, at OD): -2.6 grams
